Earlier results in patent US20210072238A1, “IMMOBILIZATION OF PROTEINS WITH CONTROLLED ORIENTATION AND LOAD” (Oregon State University, priority 2019, published 2021).

Settings: ncAA incorporated in protein

For `Cc1nnc(-c2ccc(C[C@H](N)C(=O)O)cc2)nn1` [Tet2.0, (S)-2-amino-3-(4-(6-methyl-1,2,4,5-tetrazin-3-yl)phenyl) propanoic acid], the “second-order in proteo reaction rate with sTCO” value is given as ~72,000 M^−1 s^−1.
